Source: patent publication US6620833B1, “Substituted benzimidazoles, production and use thereof as agents for combating parasitic protozoas” (Bayer Aktiengesellschaft, priority 1998, dated 2003)

Columns and labels:
Assay type in all cases: in vivo
[1] = test system: Eimeria acervulina; test: Cage experiment on coccidiosis/chicks, E. acervulina readout; settings: for Efficacy against Eimeria acervulina: first symbol of cell; on Efficacy against Eimeria acervulina: key: 2=full action; 1=slight action; 0=inactive; D=death
[2] = test system: Eimeria maxima; test: Cage experiment on coccidiosis/chicks, E. maxima readout; settings: for Efficacy against Eimeria maxima: second symbol of cell; on Efficacy against Eimeria maxima: key: 2=full action; 1=slight action; 0=inactive; D=death
[3] = test system: Eimeria tenella; test: Cage experiment on coccidiosis/chicks, E. tenella readout; settings: for Efficacy against Eimeria tenella: third symbol of cell; on Efficacy against Eimeria tenella: key: 2=full action; 1=slight action; 0=inactive; D=death
[4] = test system: Eimeria acervulina, Eimeria maxima and Eimeria tenella; test: Cage experiment on coccidiosis/chicks, mixed experimental infection; settings: for mortality n: dead animals/animals employed
Experimental: 8 to 12 day-old male chicks (e.g. LSL Brinkschulte/Senden) which have been reared coccidia-free receive the compounds according to the invention (test substances) in the concentration indicated in ppm with the feed from 3 days before (day −3) infection (=a.i.) until 8 (9) days after infection (=p.i.). 3 animals are kept in each cage. One or more groups of this type are employed per dose. Infection is carried out by means of a stomach tube directly into the crop with approximately 100,000 sporulated oocysts of Eimeria acervulina and with approximately 30,000 oocysts each of E. maxima and 40,000 sporulated oocysts of E. tenella. These are highly virulent strains. The exact infection dose is adjusted so that, if possible, one of three experimentally infected untreated chicks dies due to the infection. For assessment of the efficacy, the following criteria are taken into account: weight increase from the start of the experiment to the end of the experiment, death rate due to infection, macroscopic assessment of the faeces with respect to diarrhoea and excretion of blood on days 5 and 7 p.i. (assessment 0 to 6), macroscopic assessment of the intestinal mucosa, in particular of the appendices (assessment 0 to 6) and the oocyst excretion as well as the proportion (in %) of the oocysts sporulating in the course of 24 hours. The number of oocysts in the faeces was determined with the aid of a McMaster counting chamber (see Engelbrecht and coworkers “Parasitologische Arbeitsmethoden in Medizin and Veterinärmedizin” [Parasitological Working Methods in Medicine and Veterinary Medicine], Akademie-Verlag, Berlin (1965)). The individual findings are related to the untreated non-infected control groups and a total score is calculated (cf. A. Haberkorn (1986), pp. 263 to 270 in Research in Avian Coccidiosis ed L. R. McDougald, L. P. Joyner, P. L. Long, Proceedings of the Georgia Coccidiosis Conference, Nov. 18-20, 1985. Athens/Georgia USA).
In the column “ppm”, the concentration of the active compound employed in the feed is indicated in ppm.
In the column “mortality” the percentage of the dead animals is indicated under % and the number of dead animals/animals employed in the experiment is indicated under n.
In the column “weight % of not inf. control” the ratio of the weight of the treated animals to the weight of the non-infected control group is indicated.
In the columns “dropping scores”, “lesion score” and “oocyst control”, individual details of the action are given.
In the column “% efficacy”, the total score is assessed; 0% means no action, 100% means full action.

[5] = Table 3, 60 ppm in feed, assessment 0 to 6

SMILES	Efficacy against Eimeria acervulina ([1]; Table 4, dose 2.5 ppm)	Efficacy against Eimeria acervulina ([1]; Table 4, dose 5 ppm)	Efficacy against Eimeria acervulina ([1]; Table 4, dose 10 ppm)	Efficacy against Eimeria maxima ([2]; Table 4, dose 2.5 ppm)	Efficacy against Eimeria maxima ([2]; Table 4, dose 5 ppm)	Efficacy against Eimeria maxima ([2]; Table 4, dose 10 ppm)	Efficacy against Eimeria tenella ([3]; Table 4, dose 2.5 ppm)	Efficacy against Eimeria tenella ([3]; Table 4, dose 5 ppm)	Efficacy against Eimeria tenella ([3]; Table 4, dose 10 ppm)	other results
CCOC(=O)N(Cn1c(C(F)(F)F)nc2c(Br)cc3c(c21)OC(F)(F)C(F)(F)O3)C(C)C [Ex. 6]	1	2	2	1	2	2	1	2	2	
CCCCN(Cn1c(C(F)(F)F)nc2c(Br)cc3c(c21)OC(F)(F)C(F)(F)O3)C(=O)OCC [Ex. 5]	1	1	1	2	1	1	1	1	2	
COC(=O)N(C)Cn1c(C(F)(F)F)nc2c(Br)cc3c(c21)OC(F)(F)C(F)(F)O3 [Ex. 2]	1	2	D D D	2	2	D D D	1	2	D D D	
CCN(Cn1c(C(F)(F)F)nc2c(Cl)cc3c(c21)OC(F)(F)C(F)(F)O3)C(=O)OC [Ex. 4]	1	1	1	2	1	1	1	1	1	
COC(=O)N(C)Cn1c(C(F)(F)F)nc2c(Cl)cc3c(c21)OC(F)(F)C(F)(F)O3 [Ex. 3]	0	2	2	2	2	2	1	2	2	
CCOC(=O)N(Cn1c(C(F)(F)F)nc2c(Cl)cc3c(c21)OC(F)(F)C(F)(F)O3)C(C)C [Ex. 7]	2	2	2	1	2	2	2	2	1	
COC(=O)N(Cn1c(C(F)(F)F)nc2c(Cl)cc3c(c21)OC(F)(F)C(F)(F)O3)c1ccccc1C [Ex. 8]	0	0	2	0	1	2	0	1	2	
CC[C@@H](C(=O)[C@@H](C)[C@@H](O)[C@H](C)[C@@H]1O[C@@H]([C@@H](CC)C(=O)O)CC[C@@H]1C)[C@H]1O[C@]2(C=C[C@@H](O)[C@]3(CC[C@@](C)([C@H]4CC[C@](O)(CC)[C@H](C)O4)O3)O2)[C@H](C)C[C@@H]1C [Sal., Salinomycin, reference compound]										mortality % ([4]; Table 3, 15 ppm in feed): 100%; mortality n ([4]; Table 3, 15 ppm in feed): 3/3; mortality % ([4]; Table 3, 30 ppm in feed): 100%; mortality n ([4]; Table 3, 30 ppm in feed): 3/3; % efficacy tot. ([4]; Table 3, 60 ppm in feed): 67%; mortality % ([4]; Table 3, 60 ppm in feed): 0%; oocyst in % of inf. control tot. ([4]; Table 3, 60 ppm in feed): 12%; weight % of not inf. control ([4]; Table 3, 60 ppm in feed): 106%; dropping scores [4, 5]: 6; lesion score [4, 5]: 1.3; mortality n ([4]; Table 3, 60 ppm in feed): 0/3; oocyst in % of inf. control ac. ([1]; Table 3, 60 ppm in feed): 6%; oocyst in % of inf. control max. ([2]; Table 3, 60 ppm in feed): 0%; oocyst in % of inf. control ten. ([3]; Table 3, 60 ppm in feed): 31%
CCOC(=O)N(Cn1c(C(F)(F)F)nc2c(Cl)cc3c(c21)OC(F)(F)C(F)(F)O3)C1CCCCC1 [Ex. 9]	0	2	2	1	2	2	1	1	2	
